Publication PMC11904948, “Peptide‐Drug Conjugate for Therapeutic Reprogramming of Tumor‐Associated Macrophages in Breast Cancer” (Advanced Science, 2025)

Assays:
[1] = system: primary human macrophages; assay: Cytokine secretion by primary human macrophages (bead-based multiplex panel); format: cell-based; settings: 10 µM 4 h, washed, 48 h, supernatant, n = 3
Description: (§1) To investigate potential off‐target risk in vivo caused by MACTIDE‐V we analyzed the serum levels of the hepatic enzyme alanine aminotransferase (ALAT) following a 3 mg Kg^−1 dose of MACTIDE‐V in healthy mice. If MACTIDE‐V causes off‐target inflammation, it would likely occur in the liver (the organ that expresses the MACTIDE receptor) and would reflect on ALAT levels (liver inflammation produces a > 2‐fold increase in ALAT^[ [35] ^]).
Figure S9. Quantification of cytokines from the supernatant of primary human macrophages treated with MACTIDE-V. Primary human macrophages (obtained from monocytes derived from human blood buffy coat) were incubated with 10µM MACTIDE-V for 4 h, followed by 2 washes with media, the cells were then placed in new media and cultured for an additional 48 h. Then, the supernatant was collected and analyzed for cytokine expression using a bead-based multiplexed cytokine panel assay (Biolegend, cat# 740502) following the manufacturer’s instructions. Anova Fisher LSD (n=3).

Solubility in water = format: physicochemical; settings: method not given
Excerpt: Verteporfin (V), is a photosensitizer and inhibitor of the activation of YAP.^[ [41] ^] […] Verteporfin, in its liposomal formulation Visudyne, is an approved drug for certain ophthalmological indications. In clinical trials for cancer therapy, Verteporfin is mostly used for photodynamic therapy (clinical trial identifiers: NCT03067051, NCT03033225, NCT04590664).

[2] = Hepatic and renal toxicity serum levels in healthy mice; format: in vivo; settings: 48 h after one i.p. dose of 3 mg/Kg, healthy Balb/c mice, n = 4
Description: as §1
Table S1. Hepatic and renal toxicity analysed following one dose of MACTIDE-V. Hepatic and renal toxicology serum levels of Crea and ALAT 48 h after i.p.-administration of MACTIDE-V (3 mg/kg) in healthy Balb/c mice (n=4). Normal ranges were obtained from Mouse Phenome Database by The Jackson Laboratory.

orthotopic 4T1.2 tumors = assay: MACTIDE-V + anti-PD-1 combination therapy in orthotopic 4T1.2; format: in vivo, Balb/c mice
Description: 4T1.2 bearing mice were treated with 9 doses of CtrlPep‐V, MACTIDE‐V (1 mg Kg^−1 in Verteporfin per dose), or PBS i.p. every other day according to the scheme in (A). Anti‐PD‐1 injections started 16 days post‐tumor induction (three injections of 200 µg each). Mice were sacrificed on day 29, their tumor weights were analyzed (B), pulmonary metastases area quantified from H&E‐stained sections (C), and their tumors were analyzed with flow cytometry (D–H).
5×10^5 4T1.2 cells in 50 µL of PBS were injected subcutaneously into 4th mammary fat pad. On day 8, mice were sorted into groups based on tumor volume (≈40 mm^3): PBS, anti‐PD‐1, MACTIDE‐V, MACTIDE‐V+anti‐PD‐1. Mice were treated i.p. every other day with 500 µL of MACTIDE‐V (30 nmol, 1mg kg^−1 Verteporfin) or PBS (10 injections in total). On day 18 post‐injection, MACTIDE‐V+anti‐PD‐1 and anti‐PD‐1 groups received recombiMAb anti‐mouse PD‐1 (Bioxcell, Catalog #CP151), a mouse IgG2a monoclonal antibody with the D265A mutation in the Fc fragment which renders it unable to bind to endogenous Fcγ receptors. Mice received three intraperitoneal injections of 200 µg of anti‐PD‐1 dissolved in 500 µL of PBS. […] Five tumors per group were analyzed by FC as described above. TAM/monocytes were defined as Ly6G^−CD11b^+/F4/80^+ population from the CD45^+ population.
The lungs of all mice were fixed in formalin and embedded in paraffin, and later sectioned and stained with H&E by the histology facility of Vall D´Hebron Research Institute (Barcelona, Spain). Five 10 µm‐sections spaced apart 1 mm were taken from the lungs of each mouse (n = 7 mice per group). Then, the slides were scanned, and the metastatic area divided by the total lung area was calculated for each mouse.

[3] = tumor flow cytometry, five tumors per group

Q: With “Vert‐Ahx‐G(CTKSIPPIC)SPGAK‐OH (disulfide) [MACTIDE‐V]” as the substance, how does the “secretion of IFN‐γ” value [1] read?
A: Its value is “did not significantly increase”.

Q: What about the “secretion of IL‐1RA” value [1] of the same substance?
A: The value was “significantly decreased”.

Q: And the “secretion of IL‐12” value [1]?
A: Its value is “significantly increased”.

Q: And the “secretion of IL‐23” value [1]?
A: The value was “significantly increased”.

Q: And the “secretion of TNF‐α” value [1]?
A: Its value is “did not significantly increase”.

Q: And the “solubilization of Verteporfin by conjugation” value (Solubility in water)?
A: Its value is “able to solubilize Verteporfin”.

Q: And the “Creatinine, serum” value ([2]; normal range 10-36)?
A: The value was 11.8 ± 1 µM.

Q: What about the “Alanine aminotransferase, serum” value ([2]; normal range 50-90) of the same substance?
A: Its value is 52 ± 10.5 U/I.

Q: And the primary tumor mass (orthotopic 4T1.2 tumors; MACTIDE-V 30 nmol i.p. every other day, anti-PD-1 three i.p. injections of 200 µg, sacrifice day 29)?
A: Its primary tumor mass is “significantly reduced the primary tumor mass”.

Q: And the pulmonary metastases (orthotopic 4T1.2 tumors; metastatic area from H&E sections, n = 7 mice per group, compared with anti-PD-1)?
A: Its pulmonary metastases is “superior effect on reducing pulmonary metastases”.

Q: What about the B cell infiltration (orthotopic 4T1.2 tumors; tumor flow cytometry) of the same substance?
A: The B cell infiltration was “no differences in B cell infiltration”.

Q: And the “expression of Granzyme B (GrzB) in CD25^+PD‐1^+ CD8^+ T cells” value (orthotopic 4T1.2 tumors; tumor flow cytometry)?
A: Its value is “increased”.

Q: What about the “expression of PD‐1 on CD8^+ T cells” value (orthotopic 4T1.2 tumors; tumor flow cytometry) of the same substance?
A: The value was “reduced”.

Q: What about the “FOXP3^+PD‐1^+ population among CD4^+ T cells” value (orthotopic 4T1.2 tumors; tumor flow cytometry, compared to the other experimental conditions) of the same substance?
A: Its value is “decreasing trend”.

Q: What about the “CD206^+MHCII^+ population of TAM/monocytes” value (orthotopic 4T1.2 tumors; [3]) of the same substance?
A: Its value is “highest increase”.

Q: And the “CD206^+MHCII^− population of TAM/monocytes” value (orthotopic 4T1.2 tumors; [3])?
A: Its value is “highest decrease”.

Q: What about the “CD86^+MHCII^+ population of TAM/monocytes” value (orthotopic 4T1.2 tumors; tumor flow cytometry, n = 5) of the same substance?
A: Its value is “significantly increased”.

Q: And the “CD86^−MHCII^− population of TAM/monocytes” value (orthotopic 4T1.2 tumors; tumor flow cytometry, n = 5)?
A: Its value is “decreased”.

Q: What about the “CD4^+ T cells, CD8^+ T cells and NK cells in tumor” value (orthotopic 4T1.2 tumors; tumor flow cytometry, statistically significant only for NK cells) of the same substance?
A: The value was “highest increase”.
